Test results: PubChem BioAssay AID2060492 (Molecular Pharmacology Branch, DTP, NCI, 2025)

Tested on: 695427-040-R-J1-PDC complex spheroids, viability percent T/C
Assay: Anticancer human tumor 695427-040-R-J1-PDC patient-derived colon adenocarcinoma cell line growth inhibition [GQUAD]
Settings: for IC50: curve of first compound; for viability, T/C: stronger effect = lower value
Excerpt: DNA G-quadruplex Stabilizer Agents in Combinations in Complex Spheroids
A high-throughput screen of multi-cell type tumor spheroids was designed to identify active combinations of DNA G-quadruplex stabilizer agents and targeted small molecules. Complex spheroids include a stromal component modeled by human endothelial cells (HUVEC) and fibroblasts modeled by human mesenchymal stem cells (MSCs). The concentration ranges selected for each drug and investigational agent were based upon clinically achievable concentrations if the clinical Cmax of the agent was known.
Compounds. The drugs and investigational agents: pidnarulex (CX-5461; NSC782164), APTO-253 (NSC789042), BRACO-19 (NSC847499), peposertib (NSC802822), ceralasertib (NSC780249), elimusertib (NSC800525), camonsertib (NSC841442), AZD-1390 (NSC803789), olaparib (NSC753686), talazoparib (NSC767125), ART-558 (NSC835418), sotorasib (NSC818433), MRTX-1133 (NSC836407), SN-38 (NSC673596), topotecan (NSC609699), etoposide (NSC141540), doxorubicin (NSC123127), gemcitabine (NSC613327), 5-fluorouracil (NSC19893), paclitaxel (NSC125973), vemurafenib (NSC761431), panobinostat (NSC761190), R-306465 (JNJ-16241199; NSC773264), adavosertib (NSC754352), TP-3654 (NSC805149), carboplatin (NSC241240), KSQ-4279 (NSC840948), and staurosporine (NSC755774) were obtained from the National Cancer Institute (NCI) Developmental Therapeutics Program Chemical Repository (34). The FDA-approved anticancer drug set is available from the NCI Developmental Therapeutics Program. […] The stock solutions were prepared in dimethyl sulfoxide (DMSO, Sigma-Aldrich, St. Louis, MO, cat. D2650) at 800-fold the tested concentration and stored at -70 degrees C prior to their use. All drugs and investigational agents were tested over a range starting from a high concentration at or near the clinical Cmax and decreasing in half-log increments. If the clinical Cmax for an agent had not been determined, the highest concentration tested was 10 microM.
2.3 Cell Culture. All cells were maintained in an incubator at 37 degrees C and 5% CO2 with 95% humidity. The PDC lines were cultured according to standard operating procedures established by the NCI PDMR. All PDCs were thawed and cultured in Matrigel-coated flasks prepared with a working solution of 1X Ham's F-12 nutrient mix, without supplementation (Invitrogen, cat. 11765054), 100 U/mL penicillin-streptomycin (Invitrogen, cat. 15140122), and 2.5% Matrigel (Corning Inc., cat. 354248) for the first three passages. The 857933-349-R-J2-PDC line was cultured in 6C/Colon 1B media, which includes advanced DMEM/F-12 (Thermo Fisher Scientific, cat. 12634028), 10 mM HEPES (Thermo Fisher Scientific, cat. 15630080), 1X GlutaMAX supplement (Thermo Fisher Scientific, cat. 35050061), 0.1 mg/mL primocin (InvivoGen, cat. ant-pm-2), 10% defined fetal bovine serum, heat inactivated (HyClone Laboratories Inc., cat. SH30070.03HI), 50% L-WRN conditioned media (ATCC, cat. CRL-3276), 1.25 mM N-Acetyl-L-cysteine (Sigma-Aldrich, cat. A9165), 10 mM nicotinamide (Sigma-Aldrich, cat. N0636), 1X B-27 supplement (Thermo Fisher Scientific, cat. 17504044), 1X N-2 supplement (Thermo Fisher Scientific, cat. 17502048), 10 microM Y-27632 dihydrochloride (Tocris Bioscience, cat. 1254), and 50 ng/mL human EGF recombinant protein (Thermo Fisher Scientific, cat. PHG0311). The 485176-168-R4-J1-PDC line was cultured in Panc media, which includes all 6C/Colon 1B media components plus 100 ng/mL human FGF-10 (Thermo Fisher Scientific, cat. 100-26), 500 nM SB-431542 (Selleckchem, cat. S1067), and gastrin (Tocris, cat. 3006).
[…]

[1] = second compound 0.0316 µM, first compound 0.0316 µM
[2] = second compound 0.0316 µM, first compound 0.1 µM
[3] = second compound 0.0316 µM, first compound 0.316 µM
[4] = second compound 0.0316 µM, first compound 1 µM
[5] = second compound 0.0316 µM, first compound 3.16 µM
[6] = second compound 0.0316 µM, first compound 10 µM
[7] = second compound 0.1 µM, first compound 0.0316 µM
[8] = second compound 0.1 µM, first compound 0.1 µM
[9] = second compound 0.1 µM, first compound 0.316 µM
[10] = second compound 0.1 µM, first compound 1 µM
[11] = second compound 0.1 µM, first compound 3.16 µM
[12] = second compound 0.1 µM, first compound 10 µM
[13] = second compound 0.316 µM, first compound 0.0316 µM
[14] = second compound 0.316 µM, first compound 0.1 µM
[15] = second compound 0.316 µM, first compound 0.316 µM
[16] = second compound 0.316 µM, first compound 1 µM
[17] = second compound 0.316 µM, first compound 3.16 µM
[18] = second compound 0.316 µM, first compound 10 µM
[19] = second compound 1 µM, first compound 0.0316 µM
[20] = second compound 1 µM, first compound 0.1 µM
[21] = second compound 1 µM, first compound 0.316 µM
[22] = second compound 1 µM, first compound 1 µM
[23] = second compound 1 µM, first compound 3.16 µM
[24] = second compound 1 µM, first compound 10 µM
[25] = second compound 3.16 µM, first compound 0.0316 µM
[26] = second compound 3.16 µM, first compound 0.1 µM
[27] = second compound 3.16 µM, first compound 0.316 µM
[28] = second compound 3.16 µM, first compound 1 µM
[29] = second compound 3.16 µM, first compound 3.16 µM
[30] = second compound 3.16 µM, first compound 10 µM
[31] = second compound 10 µM, first compound 0.0316 µM
[32] = second compound 10 µM, first compound 0.1 µM
[33] = second compound 10 µM, first compound 0.316 µM
[34] = second compound 10 µM, first compound 1 µM
[35] = second compound 10 µM, first compound 3.16 µM
[36] = second compound 10 µM, first compound 10 µM
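Further: spheroids exposed to compounds for seven days before readout.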

Work on `CC1COCCN1c1cc(C2(S(C)(=N)=O)CC2)nc(-c2ccnc3[nH]ccc23)n1` (stereo unspecified) + CN(C)c1ccc(Nc2c3ccc(NC(=O)CCN4CCCC4)cc3nc3cc(NC(=O)CCN4CCCC4)ccc23)cc1 yielded an IC50 (second compound 0.0316 µM) of over 10 µM, an IC50 (second compound 0.1 µM) of over 10 µM and an IC50 (second compound 0.316 µM) of over 10 µM. The IC50 (second compound 1 µM) was over 10 µM, the IC50 (second compound 3.16 µM) was over 10 µM and the IC50 (second compound 10 µM) was over 10 µM. The viability, T/C [1] was 104%, the viability, T/C [2] was 96.5% and the viability, T/C [3] was 106%. The viability, T/C [4] was 97%, the viability, T/C [5] was 95.5% and the viability, T/C [6] was 69.4%. The viability, T/C [7] was 109%, the viability, T/C [8] was 93.8% and the viability, T/C [9] was 110%. The viability, T/C [10] was 86.1%, the viability, T/C [11] was 87% and the viability, T/C [12] was 74%. For the same compound, the viability, T/C [13] was 103%, the viability, T/C [14] was 91.4% and the viability, T/C [15] was 94.3%. The viability, T/C [16] was 83.7%, the viability, T/C [17] was 87.5% and the viability, T/C [18] was 69.9%. The viability, T/C [19] was 93.3%, the viability, T/C [20] was 96.4% and the viability, T/C [21] was 100%. The viability, T/C [22] was 93.1%, the viability, T/C [23] was 91.5% and the viability, T/C [24] was 68.5%. The viability, T/C [25] was 95.8%, the viability, T/C [26] was 101% and the viability, T/C [27] was 103%. For the same compound, the viability, T/C [28] was 90.8%, the viability, T/C [29] was 93.4% and the viability, T/C [30] was 69.6%. For the same compound, the viability, T/C [31] was 86.7%, the viability, T/C [32] was 91.8% and the viability, T/C [33] was 91.9%. The viability, T/C [34] was 88.1%, the viability, T/C [35] was 86% and the viability, T/C [36] was 69.8%.

`COc1ncnc(C2CC2)c1-c1ncc2cnn(Cc3ccc(-c4nc(C(F)(F)F)cn4C(C)C)cc3)c2n1` + CN(C)c1ccc(Nc2c3ccc(NC(=O)CCN4CCCC4)cc3nc3cc(NC(=O)CCN4CCCC4)ccc23)cc1 gave an IC50 (second compound 0.0316 µM) of over 10 µM, an IC50 (second compound 0.1 µM) of over 10 µM and an IC50 (second compound 0.316 µM) of over 10 µM. It also gave an IC50 (second compound 1 µM) of over 10 µM, an IC50 (second compound 3.16 µM) of over 10 µM and an IC50 (second compound 10 µM) of over 10 µM. It also gave a viability, T/C [1] of 101%, a viability, T/C [2] of 92.4% and a viability, T/C [3] of 91.7%. It also gave a viability, T/C [4] of 96.4%, a viability, T/C [5] of 105% and a viability, T/C [6] of 102%. The viability, T/C [7] was 105%, the viability, T/C [8] was 95.4% and the viability, T/C [9] was 91.1%. For the same compound, the viability, T/C [10] was 93.2%, the viability, T/C [11] was 101% and the viability, T/C [12] was 101%. It also gave a viability, T/C [13] of 97.7%, a viability, T/C [14] of 97.5% and a viability, T/C [15] of 88.9%. The viability, T/C [16] was 94.3%, the viability, T/C [17] was 96.1% and the viability, T/C [18] was 83.1%. The viability, T/C [19] was 96.7%, the viability, T/C [20] was 93.7% and the viability, T/C [21] was 91.5%. The viability, T/C [22] was 91.3%, the viability, T/C [23] was 101% and the viability, T/C [24] was 93.3%. It also gave a viability, T/C [25] of 93.9%, a viability, T/C [26] of 91.7% and a viability, T/C [27] of 84.9%. The viability, T/C [28] was 96.6%, the viability, T/C [29] was 99% and the viability, T/C [30] was 92.9%. It also gave a viability, T/C [31] of 83.3%, a viability, T/C [32] of 80.6% and a viability, T/C [33] of 85.5%. It also gave a viability, T/C [34] of 80.8%, a viability, T/C [35] of 79.7% and a viability, T/C [36] of 75%.

With `O=C(c1cc(Cc2n[nH]c(=O)c3ccccc23)ccc1F)N1CCN(C(=O)C2CC2)CC1` + Cc1[nH]c2ccc(F)cc2c1-c1nc2c3cccnc3c3ncccc3c2[nH]1 the IC50 (second compound 0.0316 µM) was over 10 µM, the IC50 (second compound 0.1 µM) was over 10 µM and the IC50 (second compound 0.316 µM) was over 10 µM. It also gave an IC50 (second compound 1 µM) of over 10 µM, an IC50 (second compound 3.16 µM) of under 0.0316 µM and an IC50 (second compound 10 µM) of over 10 µM. For the same compound, the viability, T/C [1] was 97.7%, the viability, T/C [2] was 105% and the viability, T/C [3] was 101%. For the same compound, the viability, T/C [4] was 82.3%, the viability, T/C [5] was 94.6% and the viability, T/C [6] was 95.2%. For the same compound, the viability, T/C [7] was 114%, the viability, T/C [8] was 93.4% and the viability, T/C [9] was 97.7%. For the same compound, the viability, T/C [10] was 78.3%, the viability, T/C [11] was 93.2% and the viability, T/C [12] was 84.9%. The viability, T/C [13] was 105%, the viability, T/C [14] was 89.1% and the viability, T/C [15] was 91.5%. For the same compound, the viability, T/C [16] was 91.1%, the viability, T/C [17] was 96% and the viability, T/C [18] was 102%. The viability, T/C [19] was 84.3%, the viability, T/C [20] was 87.4% and the viability, T/C [21] was 73.1%. It also gave a viability, T/C [22] of 78.5%, a viability, T/C [23] of 99.5% and a viability, T/C [24] of 79.2%. The viability, T/C [25] was 47.6%, the viability, T/C [26] was 87.2% and the viability, T/C [27] was 74.8%. The viability, T/C [28] was 69.1%, the viability, T/C [29] was 91% and the viability, T/C [30] was 87.4%. It also gave a viability, T/C [31] of 62.6%, a viability, T/C [32] of 69.1% and a viability, T/C [33] of 92.1%. The viability, T/C [34] was 82.5%, the viability, T/C [35] was 75.9% and the viability, T/C [36] was 89.8%.
